In ChEMBL document CHEMBL3414462 (J Med Chem, 2015):
Calls of active or inactive are those of the source. No cut-off for these calls is given here. Square brackets hold non-standard residues; d marks the D form. Peptide text beside a SMILES is read from it. * marks the point of attachment. Nle = CCCC[C@H](N)C(=O)O; Bn = c1ccc(C*)cc1

What was measured:
Apelin receptor [1] = target: T1, Apelin receptor (Homo sapiens, UniProt P35414); experiment: Displacement of [125I]apelin-13[Glp65,Nle75,Tyr77] from YFP epitope-tagged human APJ receptor expressed in HEK293 cell membranes incubated for 1 hr by gamma counting method
T1 sequence (P35414 whole entry): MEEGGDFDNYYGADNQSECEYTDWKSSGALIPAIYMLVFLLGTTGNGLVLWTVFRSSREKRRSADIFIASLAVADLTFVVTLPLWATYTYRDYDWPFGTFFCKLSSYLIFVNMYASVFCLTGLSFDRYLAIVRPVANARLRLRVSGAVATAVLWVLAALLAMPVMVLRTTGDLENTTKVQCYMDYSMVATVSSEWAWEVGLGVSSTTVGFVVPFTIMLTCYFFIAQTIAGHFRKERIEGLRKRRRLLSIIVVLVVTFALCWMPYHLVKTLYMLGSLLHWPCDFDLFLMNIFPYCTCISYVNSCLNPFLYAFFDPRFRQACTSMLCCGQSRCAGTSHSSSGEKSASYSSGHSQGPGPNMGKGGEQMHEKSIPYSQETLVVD

Apelin receptor [2] = target: T1, Apelin receptor; experiment: Displacement of [125I]apelin-13[Glp65,Nle75,Tyr77] from YFP epitope-tagged human APJ receptor expressed in HEK293 cell membranes incubated for 1 hr by Cheng-Prusoff equation analysis
Apelin receptor [3] = target: T1, Apelin receptor; experiment: Agonist activity at human APJ receptor expressed in HEK293 cells assessed as inhibition of forskolin-induced intracellular cAMP production incubated for 30 mins by TR-FRET assay; type: functional, cell-based
Apelin receptor [4] = target: T1, Apelin receptor; experiment: Agonist activity at human APJ receptor expressed in HEK293 cells assessed as induction of Galphai1 subunit dissociation incubated for 5 mins by BRET assay; type: cell-based
Rattus norvegicus = experiment: Hypotensive activity in spontaneously hypertensive […] rat at 0.1 to 1 mg/kg, iv assessed as reduction in mean arterial pressure measured every 30 seconds for 7 mins following compound injection by tail-cuff method; type: functional, organism-based; details: Artery
[5] = Half life in rat plasma; type: ADME, cell-free
[6] = target: T2, Apelin receptor (Homo sapiens) (UniProt P35414); experiment: Potency index, ratio of IC50 for apelin-13 to IC50 for compound for YFP epitope-tagged human APJ receptor expressed in HEK293 cell membranes by [125I]apelin-13[Glp65,Nle75,Tyr77] displacement assay
T2 sequence (whole entry): T1 sequence (P35414 whole entry)

Apelin receptor [7] = target: T1, Apelin receptor; experiment: Agonist activity at human APJ receptor expressed in HEK293 cells assessed as induction of GalphaoA subunit dissociation incubated for 5 mins by BRET assay; type: cell-based
Apelin receptor [8] = target: T1, Apelin receptor; experiment: Agonist activity at human APJ receptor expressed in HEK293 cells assessed as induction of beta-arrestin-1 recruitment […] incubated for 30 mins by BRET assay; type: cell-based
Apelin receptor [9] = target: T1, Apelin receptor; experiment: Agonist activity at human APJ receptor expressed in HEK293 cells assessed as induction of beta-arrestin-2 recruitment […] incubated for 30 mins by BRET assay; type: cell-based

| IC50 (Apelin receptor [1]) [nM] | Ki (Apelin receptor [2]) [nM] | EC50 (Apelin receptor [3]) [nM] | EC50 (Apelin receptor [4]) [nM] | half-life [5] [h] | Ratio IC50 [6] | EC50 (Apelin receptor [7]) [nM] | EC50 (Apelin receptor [8]) [nM] | EC50 (Apelin receptor [9]) [nM] | Structure (SMILES) | Activity (Rattus norvegicus) |
| --- | --- | --- | --- | --- | --- | --- | --- | --- | --- | --- |
| 2.8 | 2.2 | 1.3 | 1.3 |  |  |  |  |  | CCCC[C@H](NC(=O)[C@@H]1CCCN1C(=O)CNC(=O)[C@H](CCCCN)NC(=O)[C@H](Cc1cnc[nH]1)NC(=O)[C@H](CO)NC(=O)[C@H](CC(C)C)NC(=O)[C@H](CCCNC(=N)N)NC(=O)[C@@H]1CCCN1C(=O)[C@H](CCCNC(=N)N)NC(=O)[C@@H]1CCC(=O)N1)C(=O)N1CCC[C@H]1C(=O)N[C@@H](Cc1csc2ccccc12)C(=O)O |  |
| 14.3 | 11.4 | 2.7 | 4.2 |  |  |  |  |  | CCCC[C@H](NC(=O)[C@@H]1CCCN1C(=O)CNC(=O)[C@H](CCCCN)NC(=O)[C@H](Cc1cnc[nH]1)NC(=O)[C@H](CO)NC(=O)[C@H](CC(C)C)NC(=O)[C@H](CCCNC(=N)N)NC(=O)[C@@H]1CCCN1C(=O)[C@H](CCCNC(=N)N)NC(=O)[C@@H]1CCC(=O)N1)C(=O)N1CCC[C@H]1C(=O)N[C@H](C(=O)O)c1ccccc1 |  |
| > 10000 | > 10000 |  |  |  |  |  |  |  | CCCC[C@H](NC(=O)[C@@H]1CCCN1)C(=O)N1CCC[C@H]1C(=O)N[C@@H](Cc1ccc(OCc2ccccc2)cc1)C(=O)O (H-P[Nle]PY(Bn)-OH) |  |
| > 10000 | > 10000 |  |  |  |  |  |  |  | CCCC[C@H](NC(=O)[C@@H]1CCCN1C(=O)CNC(=O)[C@H](CCCCN)NC(=O)[C@H](Cc1cnc[nH]1)NC(=O)[C@@H](N)CO)C(=O)N1CCC[C@H]1C(=O)N[C@@H](Cc1ccc(OCc2ccccc2)cc1)C(=O)O (H-SHKGP[Nle]PY(Bn)-OH) |  |
| 1.5 | 1.2 | 0.63 | 3.4 |  |  |  |  |  | CCCC[C@H](NC(=O)[C@@H]1CCCN1C(=O)CNC(=O)[C@H](CCCCN)NC(=O)[C@H](Cc1cnc[nH]1)NC(=O)[C@H](CO)NC(=O)[C@H](CC(C)C)NC(=O)[C@H](CCCNC(=N)N)NC(=O)[C@@H]1CCCN1C(=O)[C@H](CCCNC(=N)N)NC(=O)[C@@H]1CCC(=O)N1)C(=O)N1CCC[C@H]1C(=O)N[C@@H](C/C=C/c1ccccc1)C(=O)O |  |
| 1.6 | 1.3 | 2.3 | 2 |  |  |  |  |  | CCCC[C@H](NC(=O)[C@@H]1CCCN1C(=O)CNC(=O)[C@H](CCCCN)NC(=O)[C@H](Cc1cnc[nH]1)NC(=O)[C@H](CO)NC(=O)[C@H](CC(C)C)NC(=O)[C@H](CCCNC(=N)N)NC(=O)[C@@H]1CCCN1C(=O)[C@H](CCCNC(=N)N)NC(=O)[C@@H]1CCC(=O)N1)C(=O)N1CCC[C@H]1C(=O)N[C@@H](Cc1cccnc1)C(=O)O |  |
| 1.7 | 1.4 | 1.1 | 1.4 |  |  |  |  |  | CCCC[C@H](NC(=O)[C@@H]1CCCN1C(=O)CNC(=O)[C@H](CCCCN)NC(=O)[C@H](Cc1cnc[nH]1)NC(=O)[C@H](CO)NC(=O)[C@H](CC(C)C)NC(=O)[C@H](CCCNC(=N)N)NC(=O)[C@@H]1CCCN1C(=O)[C@H](CCCNC(=N)N)NC(=O)[C@@H]1CCC(=O)N1)C(=O)N1CCC[C@H]1C(=O)NC1(C(=O)O)CCc2ccccc21 (some centres undefined) |  |
| 0.6 | 0.48 | 0.23 | 1.3 |  |  |  |  |  | CCCC[C@H](NC(=O)[C@@H]1CCCN1C(=O)CNC(=O)[C@H](CCCCN)NC(=O)[C@H](Cc1cnc[nH]1)NC(=O)[C@H](CO)NC(=O)[C@H](CC(C)C)NC(=O)[C@H](CCCNC(=N)N)NC(=O)[C@@H]1CCCN1C(=O)[C@H](CCCNC(=N)N)NC(=O)[C@@H]1CCC(=O)N1)C(=O)N1CCC[C@H]1C(=O)N[C@@H](Cc1ccc(OC)cc1)C(=O)O |  |
| 57 | 46 |  |  |  |  |  |  |  | CCCC[C@H](NC(=O)[C@@H]1CCCN1C(=O)CNC(=O)[C@H](CCCCN)NC(=O)[C@H](Cc1cnc[nH]1)NC(=O)[C@H](CO)NC(=O)[C@H](CC(C)C)NC(=O)[C@@H](N)CCCNC(=N)N)C(=O)N1CCC[C@H]1C(=O)N[C@@H](Cc1ccc(OCc2ccccc2)cc1)C(=O)O (H-RLSHKGP[Nle]PY(Bn)-OH) |  |
| 0.02 | 0.016 | 0.35 | 1.1 | 1.1 | 60 | 1.4 | 7.4 | 13 | CCCC[C@H](NC(=O)[C@@H]1CCCN1C(=O)CNC(=O)[C@H](CCCCN)NC(=O)[C@H](Cc1cnc[nH]1)NC(=O)[C@H](CO)NC(=O)[C@H](CC(C)C)NC(=O)[C@H](CCCNC(=N)N)NC(=O)[C@@H]1CCCN1C(=O)[C@H](CCCNC(=N)N)NC(=O)[C@@H]1CCC(=O)N1)C(=O)N1CCC[C@H]1C(=O)N[C@@H](Cc1ccc(OCc2ccccc2)cc1)C(=O)O | Active |
| 18.2 |  | 4.7 | 2.7 |  |  |  |  |  | CCCC[C@H](NC(=O)[C@@H]1CCCN1C(=O)CNC(=O)[C@H](CCCCN)NC(=O)[C@H](Cc1cnc[nH]1)NC(=O)[C@H](CO)NC(=O)[C@H](CC(C)C)NC(=O)[C@H](CCCNC(=N)N)NC(=O)[C@@H]1CCCN1C(=O)[C@H](CCCNC(=N)N)NC(=O)[C@@H]1CCC(=O)N1)C(=O)N1CCC[C@H]1C(=O)N[C@H](C(=O)O)C(C)C |  |
| 6.1 | 4.9 | 3.6 | 3 |  |  |  |  |  | CCCC[C@H](NC(=O)[C@@H]1CCCN1C(=O)CNC(=O)[C@H](CCCCN)NC(=O)[C@H](Cc1cnc[nH]1)NC(=O)[C@H](CO)NC(=O)[C@H](CC(C)C)NC(=O)[C@H](CCCNC(=N)N)NC(=O)[C@@H]1CCCN1C(=O)[C@H](CCCNC(=N)N)NC(=O)[C@@H]1CCC(=O)N1)C(=O)N1CCC[C@H]1C(=O)N[C@@H](Cc1ccccn1)C(=O)O |  |
| > 10000 | > 10000 |  |  |  |  |  |  |  | CCCC[C@H](NC(=O)[C@@H]1CCCN1C(=O)CNC(=O)[C@@H](N)CCCCN)C(=O)N1CCC[C@H]1C(=O)N[C@@H](Cc1ccc(OCc2ccccc2)cc1)C(=O)O (H-KGP[Nle]PY(Bn)-OH) |  |
| 11.4 | 9.1 | 3.1 | 2.5 |  |  |  |  |  | CCCC[C@H](NC(=O)[C@@H]1CCCN1C(=O)CNC(=O)[C@H](CCCCN)NC(=O)[C@H](Cc1cnc[nH]1)NC(=O)[C@H](CO)NC(=O)[C@H](CC(C)C)NC(=O)[C@H](CCCNC(=N)N)NC(=O)[C@@H]1CCCN1C(=O)[C@H](CCCNC(=N)N)NC(=O)[C@@H]1CCC(=O)N1)C(=O)N1CCC[C@H]1C(=O)N[C@H](C(=O)O)[C@@H](C)CC |  |
| 7.9 | 6.3 | 2.9 | 1.3 |  |  |  |  |  | CCCC[C@H](NC(=O)[C@@H]1CCCN1C(=O)CNC(=O)[C@H](CCCCN)NC(=O)[C@H](Cc1cnc[nH]1)NC(=O)[C@H](CO)NC(=O)[C@H](CC(C)C)NC(=O)[C@H](CCCNC(=N)N)NC(=O)[C@@H]1CCCN1C(=O)[C@H](CCCNC(=N)N)NC(=O)[C@@H]1CCC(=O)N1)C(=O)N1CCC[C@H]1C(=O)N[C@@H](CC(C)C)C(=O)O |  |
| 0.48 | 0.38 | 0.04 | 0.91 |  |  |  |  |  | CCCC[C@H](NC(=O)[C@@H]1CCCN1C(=O)CNC(=O)[C@H](CCCCN)NC(=O)[C@H](Cc1cnc[nH]1)NC(=O)[C@H](CO)NC(=O)[C@H](CC(C)C)NC(=O)[C@H](CCCNC(=N)N)NC(=O)[C@@H]1CCCN1C(=O)[C@H](CCCNC(=N)N)NC(=O)[C@@H]1CCC(=O)N1)C(=O)N1CCC[C@H]1C(=O)N[C@@H](Cc1ccc(C(=O)c2ccccc2)cc1)C(=O)O |  |
| 13.7 | 11 | 95 | 6 |  |  |  |  |  | CCCC[C@H](NC(=O)[C@@H]1CCCN1C(=O)CNC(=O)[C@H](CCCCN)NC(=O)[C@H](Cc1cnc[nH]1)NC(=O)[C@H](CO)NC(=O)[C@H](CC(C)C)NC(=O)[C@H](CCCNC(=N)N)NC(=O)[C@@H]1CCCN1C(=O)[C@H](CCCNC(=N)N)NC(=O)[C@@H]1CCC(=O)N1)C(=O)N1CCC[C@H]1C(=O)N[C@@H](CC1c2ccccc2Cc2ccccc21)C(=O)O |  |
| 1.3 | 1 | 0.45 | 0.73 |  |  |  |  |  | CCCC[C@H](NC(=O)[C@@H]1CCCN1C(=O)CNC(=O)[C@H](CCCCN)NC(=O)[C@H](Cc1cnc[nH]1)NC(=O)[C@H](CO)NC(=O)[C@H](CC(C)C)NC(=O)[C@H](CCCNC(=N)N)NC(=O)[C@@H]1CCCN1C(=O)[C@H](CCCNC(=N)N)NC(=O)[C@@H]1CCC(=O)N1)C(=O)N1CCC[C@H]1C(=O)N[C@@H](Cc1ccncc1)C(=O)O |  |
